Patent US7745651B2, “Cationic lipids and methods of use” (Protiva Biotherapeutics, Inc., priority 2004, dated 2010)
Values joined by “and” are separate entries in the source; they are usually repeats but may differ in a detail not shown here. Identical values can stand only once.

Legend:
[1] = Nucleic acid encapsulation in SNALP, RiboGreen fluorescence assay; format: physicochemical; conditions: SNALP DSPC:Chol:PEG-C-DMA:Cationic Lipid 20:48:2:30 molar percent, siRNA; mean of 3 experiments, error is standard deviation
Procedure: SNALP Preparation: SNALP with a lipid composition of DSPC:Chol:PEG-C-DMA:Cationic Lipid (20:48:2:30 molar percent) were prepared using the spontaneous vesicle formation by ethanol dilution method [Jeffs et al., Pharm. Res. In Press (2005)]. The sample's were diafiltered against 100 mL of PBS (20 wash volumes) using a cross flow ultrafiltration cartridge (Amersham Biosciences, Piscataway, N.J.) and sterile filtered through Acrodisc 0.2 μm Posidyne filters (Pall Corp., Ann Arbor, Mich.). The siRNA concentration of final samples was determined using the RiboGreen assay and a siRNA standard curve. Particle size and polydispersity was determined using a Malvern Instruments Zetasizer 3000HSA (Malvern, UK). Nucleic acid encapsulation was determined using a RiboGreen assay, comparing fluorescence in the presence and absence of Triton X-100. RiboGreen fluorescence was measured using a Varian Eclipse Spectrofluorometer (Varian Inc) with λex=500 nm, λem=525 nm.
This example sets forth the physical properties of the SNALP formulations described herein. SNALP containing the various cationic lipids were prepared as described and encapsulated RNA and particle size assessed (Table 1 below). […] Polydispersity of all formulations was low, indicating a narrow distribution of particle size. RNA encapsulation in the final particles was 84-85% of the total.
Percentage Encapsulation was determined using the RiboGreen fluorescence assay to measure the amount of encapsulated nucleic acid relative to the total nucleic acid present. Particle diameter and polydispersity was measured using a Malvern Zetasizer. Values are the mean of 3 separate experiments, the error is standard deviation.

Neuro2A-G cells = experiment: Uptake of SNALP containing Cy3-labeled siRNA, fluorescence microscopy; format: cell-based; conditions: 0.5 μg/mL siRNA, 4 hours
Procedure: Uptake of SNALP Containing Cy3-labeled siRNA: SNALP were formulated as previously described, but using siRNA labelled with the fluorophore Cy3 (Cy3-siRNA was a gift of Sirna Therapeutics Inc, Boulder, Colo.). The encapsulation, siRNA concentration, and particle size were determined as described.
For the uptake study, 8×10^4 Neuro2A-G cells were grown overnight on 4-well chamber slides (BD Falcon, Mississauga, ON) in MEM containing 0.25 mg/mL G418. DSDMA, DODMA, DLinDMA, and DLenDMA SNALP containing Cy3-siRNA, as well as naked Cy3-siRNA and unlabeled DSDMA SNALP were placed on the cells at 0.5 μg/mL siRNA. After a 4 hour incubation with the transfection media, the cells were washed with PBS, then with MEM containing G418 and finally with PBS once more. […] The cells were viewed using an Olympus BX60 Microscope modified for fluorescence capabilities. Cy3 fluorescence within the cells was visualized using a rhodamine cube set (Microgen Optics, Redding, Calif.) and the DAPI fluorescence was visualized using a DAPI cube set (Carsen Group, Markham, ON). […] Pictures of the cells were taken at exposure times of ¼ sec when examining Cy3 fluorescence and 1/80 sec when examining DAPI fluorescence.
The uptake process was examined further with the use of fluorescently labelled SNALP. […] The Cy3 fluorescence (red) is most intense in cells treated with DSDMA containing SNALP. […]

[2] = TNS assay, apparent pKa of cationic lipid incorporated in SNALP; conditions: TNS fluorescence, pH varied from 4.5 to 9.5
Procedure: TNS Assay: 20 μM of SNALP lipid and 6 μM of TNS were mixed in a fluorescence cuvette in 2 mL of 20 mM sodium phosphate, 25 mM citrate, 20 mM ammonium acetate and 150 mM NaCl, at a pH that was varied from 4.5 to 9.5. Fluorescence was determined at each pH using a Varian Eclipse Spectrofluorometer (Varian Inc) with settings of λex=322 nm, λem=431 nm. Fluorescence for each system at the various pH was then normalized to the value at pH 4.5. The pKa values are the point at which 50% of the molecules present are charged. By assuming that minimum fluorescence represents zero charge, and maximum fluorescence represents 100% charge, pKa can be estimated by measuring the pH at the point exactly half way between the values of minimum and maximum charge.
TNS is electrostatically attracted to positively charged membranes. Subsequent adsorption to the lipid membrane results in the immediate environment of the TNS becoming more lipophilic, removing the water molecules that otherwise quench TNS fluorescence. Since TNS is more readily absorbed by positively charged membranes, TNS fluorescence is an indicator of positive membrane surface charge. The surface pKa values of each SNALP formulation were determined by varying the local pH in the presence of TNS.

SMILES: CC/C=C\C/C=C\C/C=C\CCCCCCCCOCC(CN(C)C)OCCCCCCCC/C=C\C/C=C\C/C=C\CC (stereo not drawn) [DLenDMA, 1,2-Dilinolenyloxy-N,N-dimethylaminopropane]
- % Encapsulation [1]: 85 ± 1%
- cellular uptake of Cy3-labeled siRNA (Cy3 fluorescence) (Neuro2A-G cells): extremely faint
- apparent (surface) pKa of cationic lipid in SNALP [2]: 6.7

SMILES: CCCCCCCCCCCCCCCCCC[N+](C)(C)CCCCCCCCCCCCCCCCCC [DSDMA, Distearyldimethylammonium]
- % Encapsulation [1]: 67% and 67 ± 3%
- cellular uptake of Cy3-labeled siRNA (Cy3 fluorescence) (Neuro2A-G cells): most intense
- apparent (surface) pKa of cationic lipid in SNALP [2]: ~7.6
